Marks after values point to notes of the source that are not given here.
Legend:
[1] = system: maize haploid seedlings of origin B73; assay: doubled haploid production trial, B73 haploids (Example 4); conditions: for Ear: Plants with kernels after selfing % / Tassel: No. of fertile anthers extruded/tassel / Tassel: No. of fertile sectors/tassel / Tassel: Plants with fertile sectors % / Ear: Plants with kernels after selfing No. / Tassel: Plants with fertile sectors No. / No. of plants Survived / Ear: No. of kernels produced/ear: B73 haploids, 600 kPa, 2 days; for Ear: Plants with kernels after selfing No. / Tassel: Plants with fertile sectors No.: 11 survived; for No. of plants Survived: 11 treated; for Ear: No. of kernels produced/ear: selfed
Protocol: (§1) Ten to nineteen plants were treated for each plot. Self pollinations were conducted on these treated haploids if there were fertile sectors on the tassel. Pollen grains were collected carefully on a sheet of paper and transferred to the silks repeatedly. Silks and husks were cut back prior to pollination in order to permit maximum seed set. The numbers of fertile tassel and ear sectors, as well as the numbers of anthers and selfed kernels were recorded. Statistical analyses were as described above.

[2] = system: maize haploid seedlings of origin Oh43 × Mo17; assay: doubled haploid production trial, Oh43 × Mo17 haploids (Example 4); conditions: 600 kPa, 2 days; for Ear: No. of kernels produced/ear: selfed
Protocol: as §1

[3] = system: maize haploid seedlings of origin W22 × W23; assay: doubled haploid production trial, W22 × W23 haploids (Example 4); conditions: 600 kPa, 2 days; for Ear: No. of kernels produced/ear: selfed
Protocol: as §1

[4] = system: maize haploid seedlings of various origin; assay: doubled haploid production trial, combined data (Total/Average) of haploids of eight different origins; conditions: for Ear: Plants with kernels after selfing % / Tassel: No. of fertile anthers extruded/tassel / Tassel: No. of fertile sectors/tassel / Tassel: Plants with fertile sectors % / Ear: Plants with kernels after selfing No. / Tassel: Plants with fertile sectors No. / No. of plants Survived / Ear: No. of kernels produced/ear: Total/Average of eight origins, 600 kPa, 2 days; for Ear: No. of kernels produced/ear: selfed
Protocol: as §1

[5] = system: B55 haploid plants; assay: nitrous oxide treatment of B55 haploids (initial study, Example 1)
Protocol: Maize haploids were induced by the stock 6 procedure (Coe 1959) and separated by the color marker R1-scm2 (Kato, 1999c). […] Haploid seeds were surface sterilized with the fungicide Captan and germinated in moist vermiculite at 30° C. for two days. The germinated seeds were planted at the edge of a small pot filled with ProMix (FIG. 1).
Application of a water mist to the plastic carpet may be used to prevent the occurrence of a static charge. […] The chamber was made from steel pipes and flanges designed for industrial use. Two 3 foot long pipes with flanges at both sides were connected to each other with 8 bolts to form the chamber. Iron covers were applied at the both ends. […] The chamber was preferably earthed.
Because the gas from the tank was very cold, use of a long introductory tube (5 m) submerged in water was made to warm up the gas before introduction into the chamber. Application of paper wrapped moistened calcium hydroxide was also preferable to absorb accumulating carbon dioxide in the chamber.
After N2O treatment the seedlings were kept at warm temperature (20–25° C.) in the greenhouse for two to three days and transplanted to the field or pots in the greenhouse. […] The plants were then grown and self pollinated. Cultivation and self pollination methods were the same as for diploid maize plants.

SMILES: [N-]=[N+]=O [nitrous oxide gas, nitrous oxide]
- ear and silk abnormalities ([1]; B73 haploids treated at the 7 leaf stage): deformed ears and delayed silk emergence
- Ear: Plants with kernels after selfing % ([1]; 5 leaf stage): 36 n.s. %
- Tassel: No. of fertile anthers extruded/tassel ([1]; 5 leaf stage): 3.5 n.s /tassel
- Tassel: No. of fertile sectors/tassel ([1]; 5 leaf stage): 0.5 n.s. /tassel
- Tassel: Plants with fertile sectors % ([1]; 5 leaf stage): 45 n.s. %
- Ear: Plants with kernels after selfing No. ([1]; 5 leaf stage): 4
- Tassel: Plants with fertile sectors No. ([1]; 5 leaf stage): 5
- No. of plants Survived ([1]; 5 leaf stage): 11
- Ear: No. of kernels produced/ear ([1]; 5 leaf stage): 2.4 n.s. /ear
- Ear: Plants with kernels after selfing % ([1]; 6 leaf stage): 45%
- Tassel: No. of fertile anthers extruded/tassel ([1]; 6 leaf stage): 13.2 /tassel
- Tassel: Plants with fertile sectors % ([1]; 6 leaf stage): 64%
- Ear: Plants with kernels after selfing No. ([1]; 6 leaf stage): 5
- Tassel: Plants with fertile sectors No. ([1]; 6 leaf stage): 7
- No. of plants Survived ([1]; 6 leaf stage): 11
- Ear: No. of kernels produced/ear ([1]; 6 leaf stage): 10.7 /ear
- Ear: Plants with kernels after selfing % ([1]; 7 leaf stage): 18%
- Tassel: No. of fertile anthers extruded/tassel ([1]; 7 leaf stage): 14.9 /tassel
- Tassel: No. of fertile sectors/tassel ([1]; 7 leaf stage): 1.4 /tassel
- Tassel: Plants with fertile sectors % ([1]; 7 leaf stage): 64%
- Ear: Plants with kernels after selfing No. ([1]; 7 leaf stage): 2
- Tassel: Plants with fertile sectors No. ([1]; 7 leaf stage): 7
- No. of plants Survived ([1]; 7 leaf stage): 11
- Ear: No. of kernels produced/ear ([1]; 7 leaf stage): 0.9 /ear
- Ear: Plants with kernels after selfing % ([2]; 5 leaf stage): 27 n.s. %
- Tassel: No. of fertile anthers extruded/tassel ([2]; 5 leaf stage): 4.2 /tassel
- Tassel: Plants with fertile sectors % ([2]; 5 leaf stage): 73** %
- Ear: Plants with kernels after selfing No. ([2]; 5 leaf stage, 11 survived): 3
- Tassel: Plants with fertile sectors No. ([2]; 5 leaf stage, 11 survived): 8
- No. of plants Survived ([2]; 5 leaf stage, 11 treated): 11
- Ear: No. of kernels produced/ear ([2]; 5 leaf stage): 0.5 n.s. /ear
- Ear: Plants with kernels after selfing % ([2]; 6 leaf stage): 38%
- Tassel: No. of fertile anthers extruded/tassel ([2]; 6 leaf stage): 29.8** /tassel
- Tassel: No. of fertile sectors/tassel ([2]; 6 leaf stage): 2.5** /tassel
- Tassel: Plants with fertile sectors % ([2]; 6 leaf stage): 100** %
- Ear: Plants with kernels after selfing No. ([2]; 6 leaf stage, 13 survived): 5
- Tassel: Plants with fertile sectors No. ([2]; 6 leaf stage, 13 survived): 13
- No. of plants Survived ([2]; 6 leaf stage, 14 treated): 13
- Ear: No. of kernels produced/ear ([2]; 6 leaf stage): 3.8 /ear
- Ear: Plants with kernels after selfing % ([2]; 7 leaf stage): 13%
- Tassel: No. of fertile anthers extruded/tassel ([2]; 7 leaf stage): 8.3* /tassel
- Tassel: No. of fertile sectors/tassel ([2]; 7 leaf stage): 1.8** /tassel
- Tassel: Plants with fertile sectors % ([2]; 7 leaf stage): 73** %
- Ear: Plants with kernels after selfing No. ([2]; 7 leaf stage, 15 survived): 2
- Tassel: Plants with fertile sectors No. ([2]; 7 leaf stage, 15 survived): 11
- No. of plants Survived ([2]; 7 leaf stage, 19 treated): 15
- Ear: No. of kernels produced/ear ([2]; 7 leaf stage): 0.6 /ear
- Ear: Plants with kernels after selfing % ([3]; 5 leaf stage): 45 n.s. %
- Tassel: No. of fertile anthers extruded/tassel ([3]; 5 leaf stage): 27.6 n.s /tassel
- Tassel: No. of fertile sectors/tassel ([3]; 5 leaf stage): 1.1 n.s. /tassel
- Tassel: Plants with fertile sectors % ([3]; 5 leaf stage): 64 n.s. %
- Ear: Plants with kernels after selfing No. ([3]; 5 leaf stage, 11 survived): 5
- Tassel: Plants with fertile sectors No. ([3]; 5 leaf stage, 11 survived): 7
- No. of plants Survived ([3]; 5 leaf stage, 12 treated): 11
- Ear: No. of kernels produced/ear ([3]; 5 leaf stage): 9.5 n.s. /ear
- Ear: Plants with kernels after selfing % ([3]; 6 leaf stage): 40%
- Tassel: No. of fertile anthers extruded/tassel ([3]; 6 leaf stage): 18.0 /tassel
- Tassel: No. of fertile sectors/tassel ([3]; 6 leaf stage): 2.1 /tassel
- Tassel: Plants with fertile sectors % ([3]; 6 leaf stage): 60%
- Ear: Plants with kernels after selfing No. ([3]; 6 leaf stage, 10 survived): 4
- Tassel: Plants with fertile sectors No. ([3]; 6 leaf stage, 10 survived): 6
- No. of plants Survived ([3]; 6 leaf stage, 12 treated): 10
- Ear: No. of kernels produced/ear ([3]; 6 leaf stage): 3.3 /ear
- Ear: Plants with kernels after selfing % ([3]; 7 leaf stage): 43%
- Tassel: No. of fertile anthers extruded/tassel ([3]; 7 leaf stage): 7.1 /tassel
- Tassel: No. of fertile sectors/tassel ([3]; 7 leaf stage): 1.9 /tassel
- Tassel: Plants with fertile sectors % ([3]; 7 leaf stage): 71%
- Ear: Plants with kernels after selfing No. ([3]; 7 leaf stage, 7 survived): 3
- Tassel: Plants with fertile sectors No. ([3]; 7 leaf stage, 7 survived): 5
- No. of plants Survived ([3]; 7 leaf stage, 8 treated): 7
- Ear: No. of kernels produced/ear ([3]; 7 leaf stage): 11.4 /ear
- Ear: Plants with kernels after selfing % ([4]; 5 leaf stage): 36** %
- Tassel: No. of fertile anthers extruded/tassel ([4]; 5 leaf stage): 32.3** /tassel
- Tassel: No. of fertile sectors/tassel ([4]; 5 leaf stage): 0.9** /tassel
- Tassel: Plants with fertile sectors % ([4]; 5 leaf stage): 61** %
- Ear: Plants with kernels after selfing No. ([4]; 5 leaf stage, 95 survived): 33
- Tassel: Plants with fertile sectors No. ([4]; 5 leaf stage, 95 survived): 58
- No. of plants Survived ([4]; 5 leaf stage, 102 treated): 95
- Ear: No. of kernels produced/ear ([4]; 5 leaf stage): 4.4** /ear
- Ear: Plants with kernels after selfing % ([4]; 6 leaf stage): 44%
- Tassel: No. of fertile anthers extruded/tassel ([4]; 6 leaf stage): 74.3 /tassel
- Tassel: No. of fertile sectors/tassel ([4]; 6 leaf stage): 2.1** /tassel
- Tassel: Plants with fertile sectors % ([4]; 6 leaf stage): 78** %
- Ear: Plants with kernels after selfing No. ([4]; 6 leaf stage, 90 survived): 39
- Tassel: Plants with fertile sectors No. ([4]; 6 leaf stage, 90 survived): 70
- No. of plants Survived ([4]; 6 leaf stage, 97 treated): 90
- Ear: No. of kernels produced/ear ([4]; 6 leaf stage): 8.6** /ear
- Ear: Plants with kernels after selfing % ([4]; 7 leaf stage): 34** %
- Tassel: No. of fertile anthers extruded/tassel ([4]; 7 leaf stage): 63.5** /tassel
- Tassel: No. of fertile sectors/tassel ([4]; 7 leaf stage): 2.8** /tassel
- Tassel: Plants with fertile sectors % ([4]; 7 leaf stage): 74** %
- Ear: Plants with kernels after selfing No. ([4]; 7 leaf stage, 90 survived): 29
- Tassel: Plants with fertile sectors No. ([4]; 7 leaf stage, 90 survived): 67
- No. of plants Survived ([4]; 7 leaf stage, 101 treated): 90
- Ear: No. of kernels produced/ear ([4]; 7 leaf stage): 7.0** /ear
- effect of treatment on fertility ([4]; haploids derived from A619, B73 and W22×W23): no significant effect
- treated haploids that produced double haploid progenies after self pollination ([4]; haploids induced from Oh43, A619×B73, and Oh43×Mol7): about 30%
- B55 haploid plants that could be self pollinated ([5]; B55 haploids, 6 atm (600 kPa), two days, room temperature): 70–90%
- treated plants sensitive to drought following treatment ([5]; after N2O treatment, upon transplantation): 10%
- induction of doubled sectors ([5]; initial study, B55 haploids, 600 kPa): induced doubled sectors in both the tassel and the ear
- damage to plants ([5]; initial study, sealed chamber, room temperature): not damaged

Reference: patent US7135615B2, “Chromosome doubling method” (The Curators of the University of Missouri, priority 2001, dated 2006)
